This note sets out measurements from the supplement of paper PMC10883282.

± gives the standard deviation of the averaged measurements.

The test relates to HS729. The experiment in a line: relative viability vs DMSO control (72 h) (fraction); higher = more viable cells. In short, it runs like this:
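A 5 µM positive control and 0.1% DMSO vehicle ran alongside sarcoma cell lines seeded in 384-well plates to reach 80–90% confluence. Serially diluted compound, 2.5 µl from source plates of 10 mM to 0.0002 mM, was added after 24 h, and the plates were held 72 h at 37 °C, 5% CO2. Relative viability was worked out from ATPLite readings as percent growth averaged over up to triplicate wells. The values were rescaled so that 1 is full and 0 is none.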

For the compound `CCN1CCN(Cc2ccc(Nc3ncc(F)c(-c4cc(F)c5nc(C)n(C(C)C)c5c4)n3)nc2)CC1` [Abemaciclib], the relative viability reads like this: (0.00017 µM) 0.912 ± 0.041; (0.00051 µM) 0.923 ± 0.014; (0.00152 µM) 0.892 ± 0.057; (0.00457 µM) 0.862 ± 0.033; (0.01372 µM) 0.9097 ± 0.0087; (0.04115 µM) 0.865 ± 0.029. Besides, the relative viability reads like this: (0.1235 µM) 0.818 ± 0.029; (0.3704 µM) 0.854 ± 0.087; (1.111 µM) 0.873 ± 0.025; (3.333 µM) 0.886 ± 0.021; (10 µM) 0.885 ± 0.011.
Turning to `CC(C)NC(=O)C1CCC(n2c(NC(=O)c3ccc(F)cc3)nc3ccc(CN4CCC(C(C)(C)O)CC4)cc32)CC1` (centres undefined) [Belizatinib], the relative viability by setting is: (0.00017 µM) 0.93 ± 0.018; (0.00051 µM) 0.952 ± 0.042; (0.00152 µM) 0.967 ± 0.057; (0.00457 µM) 0.945 ± 0.027; (0.01372 µM) 0.949 ± 0.061; (0.04115 µM) 0.9059 ± 0.0065. The relative viability by setting is: (0.1235 µM) 0.836 ± 0.043; (0.3704 µM) 0.695 ± 0.041; (1.111 µM) 0.602 ± 0.04; (3.333 µM) 0.526 ± 0.02; (10 µM) 0.42 ± 0.053.
Take `CC[C@H](Nc1ncnc2[nH]cnc12)c1nc2cccc(F)c2c(=O)n1-c1ccccc1` [Idelalisib]: the relative viability is, setting by setting: (0.00017 µM) 1.07 ± 0.061; (0.00051 µM) 1.07 ± 0.073; (0.00152 µM) 1.03 ± 0.055; (0.00457 µM) 1.05 ± 0.023; (0.01372 µM) 1.01 ± 0.038; (0.04115 µM) 0.987 ± 0.018. Moreover, the relative viability reads like this: (0.1235 µM) 0.947 ± 0.049; (0.3704 µM) 0.919 ± 0.035; (1.111 µM) 0.905 ± 0.05; (3.333 µM) 0.843 ± 0.036; (10 µM) 0.704 ± 0.011.
Consider `CC(C)(C)c1cc(NC(=O)Nc2ccc(-c3cn4c(n3)sc3cc(OCCN5CCOCC5)ccc34)cc2)no1` [Quizartinib], for which the relative viability (0.00017 µM) is 1.03 ± 0.1; the relative viability (0.00051 µM) is 0.973 ± 0.047; the relative viability (0.00152 µM) came to 1 ± 0.11; the relative viability (0.00457 µM) is 0.976 ± 0.12; the relative viability (0.01372 µM) worked out at 1.01 ± 0.084; the relative viability (0.04115 µM) was found to be 0.953 ± 0.062. Besides, the relative viability by setting is: (0.1235 µM) 1.01 ± 0.12; (0.3704 µM) 0.873 ± 0.069; (1.111 µM) 0.894 ± 0.12; (3.333 µM) 0.873 ± 0.061; (10 µM) 0.929 ± 0.061.
For the compound `Cc1cnc(Nc2ccc(OCCN3CCCC3)cc2)nc1Nc1cccc(S(=O)(=O)NC(C)(C)C)c1` [Fedratinib], the relative viability turned out to be 1.03 ± 0.038 (0.00017 µM); 0.948 ± 0.033 (0.00051 µM); 0.99 ± 0.02 (0.00152 µM); 0.928 ± 0.047 (0.00457 µM); 0.924 ± 0.05 (0.01372 µM); 0.888 ± 0.021 (0.04115 µM). In addition, the relative viability turned out to be 0.805 ± 0.033 (0.1235 µM); 0.649 ± 0.026 (0.3704 µM); 0.497 ± 0.0061 (1.111 µM); 0.263 ± 0.025 (3.333 µM); 0.0101 ± 0.0019 (10 µM).
For `CC1(C)CNc2cc(NC(=O)c3cccnc3NCc3ccncc3)ccc21` [Motesanib], the relative viability by setting is: (0.00017 µM) 0.999 ± 0.075; (0.00051 µM) 1.03 ± 0.077; (0.00152 µM) 1 ± 0.077; (0.00457 µM) 1 ± 0.043; (0.01372 µM) 0.992 ± 0.037; (0.04115 µM) 1.03 ± 0.064. The relative viability reads like this: (0.1235 µM) 0.955 ± 0.073; (0.3704 µM) 0.932 ± 0.046; (1.111 µM) 0.872 ± 0.051; (3.333 µM) 0.828 ± 0.019; (10 µM) 0.779 ± 0.065.
`Nc1cc(C(F)(F)F)c(-c2cc(N3CCOCC3)nc(N3CCOCC3)n2)cn1` [Buparlisib] came in with a relative viability (0.00017 µM) of 0.937 ± 0.034; a relative viability (0.00051 µM) of 0.95 ± 0.015; a relative viability (0.00152 µM) of 0.936 ± 0.046; a relative viability (0.00457 µM) of 0.906 ± 0.083; a relative viability (0.01372 µM) of 0.902 ± 0.062; a relative viability (0.04115 µM) of 0.89 ± 0.012. Also, the relative viability runs as follows: (0.1235 µM) 0.812 ± 0.052; (0.3704 µM) 0.702 ± 0.059; (1.111 µM) 0.568 ± 0.053; (3.333 µM) 0.327 ± 0.023; (10 µM) 0.274 ± 0.026.
With `Cc1cc(C)c(/C=C2\C(=O)Nc3ccccc32)[nH]1` [Semaxanib], the relative viability runs as follows: (0.00017 µM) 0.893 ± 0.093; (0.00051 µM) 0.895 ± 0.11; (0.00152 µM) 0.895 ± 0.074; (0.00457 µM) 0.889 ± 0.093; (0.01372 µM) 0.871 ± 0.086; (0.04115 µM) 0.883 ± 0.097. Further, the relative viability (0.1235 µM) was 0.853 ± 0.078; the relative viability (0.3704 µM) came out at 0.821 ± 0.069; the relative viability (1.111 µM) is 0.762 ± 0.07; the relative viability (3.333 µM) came out at 0.747 ± 0.057; the relative viability (10 µM) came out at 0.613 ± 0.036.
With `CCc1cc2c(cc1N1CCC(N3CCOCC3)CC1)C(C)(C)c1[nH]c3cc(C#N)ccc3c1C2=O` [Alectinib], the relative viability (0.00017 µM) came to 0.923 ± 0.021; the relative viability (0.00051 µM) came out at 0.962 ± 0.027; the relative viability (0.00152 µM) came out at 0.958 ± 0.035; the relative viability (0.00457 µM) worked out at 0.938 ± 0.073; the relative viability (0.01372 µM) was found to be 0.972 ± 0.047; the relative viability (0.04115 µM) came out at 0.987 ± 0.021. Also, the relative viability is, setting by setting: (0.1235 µM) 0.937 ± 0.029; (0.3704 µM) 0.941 ± 0.045; (1.111 µM) 1 ± 0.058; (3.333 µM) 0.933 ± 0.022; (10 µM) 1.02 ± 0.024.
